Like-named read-outs stand apart in the source and are kept apart here.
Assay: Plasma kinetic study of colchicine with and without Schisandrin A
Type: in vivo
Conditions: male, Sprague Dawley, rat, po, 3 mg/kg; for AUC(0-t): read-out: AUC0→t of colchicine; for AUC(0-inf): read-out: AUC0→∞ of colchicine; for MRT last: read-out: MRT0→t of colchicine; for MRT inf: read-out: MRT0→∞ of colchicine; for half-life: read-out: T1/2 of colchicine (converted)
Description: 42 Male Sprague Dawley rats (weight, 170-210 g) were maintained on a 12-h light/dark cycle with free access to water and lab chow for 10-14 h prior to the experiment. Rats were randomly divided into 7 groups (n=6 each) and groups 2-7 received 0 mg/kg, 6.3 mg/kg, and 12.6 mg/kg, 25.2 mg/kg, 50.4 mg/kg and 63.0 mg/kg of Schisandrin A in 1% CMC-Na (300-800 cps) via oral administration, respectively. After 5 minutes, all the groups received 3.0 mg/kg of colchicine in a solution of 2% DMSO-98% sterile water via oral administration.
After colchicine treatment, blood samples were collected from individual rat at 5 min, 15 min, 0.5 h, 1 h, 2 h, 4 h, 6 h, 8 h, 10 h, 24 h respectively. Plasma was separated by centrifugation at 8000 rpm for 6 minutes at 4° C. and kept at −80° C. until analysis. Plasma homogenate was injected into LC-MS/MS for analysis. Pharmacokinetic parameters of colchicine after a single oral dose of colchicine (3.0 mg/kg) in rats with and without different dose of Schisandrin A, including area under the concentration-time curve (AUC), mean residence time (MRT) and terminal elimination half-life (T1/2), Cmax, and Tmax are shown in Table 5.

[1] = Group1, rats, colchicine 3.0 mg/kg oral, no Schisandrin A dose stated
[2] = Group2, rats, Schisandrin A 0 mg/kg oral 5 min before colchicine 3.0 mg/kg oral
[3] = Group3, rats, Schisandrin A 6.3 mg/kg oral 5 min before colchicine 3.0 mg/kg oral
[4] = Group4, rats, Schisandrin A 12.6 mg/kg oral 5 min before colchicine 3.0 mg/kg oral
[5] = Group5, rats, Schisandrin A 25.2 mg/kg oral 5 min before colchicine 3.0 mg/kg oral
[6] = Group6, rats, Schisandrin A 50.4 mg/kg oral 5 min before colchicine 3.0 mg/kg oral
[7] = Group7, rats, Schisandrin A 63.0 mg/kg oral 5 min before colchicine 3.0 mg/kg oral

## COc1cc2c(c(OC)c1OC)-c1ccc(OC)c(=O)cc1[C@@H](NC(C)=O)CC2 [colchicine]
[1]
  Cmax: 13.4 ± 4.38 ng/mL
  Tmax: 0.17 ± 0.09 h
  AUC(0-t): 48.9 ± 14.9 ng·h/mL
  AUC(0-inf): 57.5 ± 16.1 ng·h/mL
  MRT last: 4.54 ± 1.33 h
  MRT inf: 6.99 ± 1.99 h
  half-life: 5.2 ± 2.31 h
[2]
  Cmax: 10.2 ± 2.63 ng/mL
  Tmax: 0.22 ± 0.07 h
  AUC(0-t): 32.9 ± 20.9 ng·h/mL
  AUC(0-inf): 40.6 ± 22.2 ng·h/mL
  MRT last: 3.89 ± 1.74 h
  MRT inf: 6.86 ± 2.77 h
  half-life: 4.67 ± 2.04 h
[3]
  Cmax: 24.4 ± 6.12 ng/mL
  Tmax: 0.19 ± 0.09 h
  AUC(0-t): 74.4 ± 27 ng·h/mL
  AUC(0-inf): 84.5 ± 30.5 ng·h/mL
  MRT last: 5.04 ± 1.86 h
  MRT inf: 7.67 ± 3.34 h
  half-life: 6.12 ± 2.86 h
[4]
  Cmax: 25.7 ± 9.67 ng/mL
  Tmax: 0.19 ± 0.09 h
  AUC(0-t): 71 ± 33.3 ng·h/mL
  AUC(0-inf): 79.7 ± 34.9 ng·h/mL
  MRT last: 3.95 ± 1.2 h
  MRT inf: 6.54 ± 3.18 h
  half-life: 6.56 ± 4.7 h
[5]
  Cmax: 29.3 ± 11.9 ng/mL
  Tmax: 0.11 ± 0.07 h
  AUC(0-t): 75.5 ± 27.6 ng·h/mL
  AUC(0-inf): 86.8 ± 36.2 ng·h/mL
  MRT last: 4.04 ± 1.44 h
  MRT inf: 7.29 ± 4.72 h
  half-life: 7.53 ± 6.49 h
[6]
  Cmax: 48.2 ± 12.4 ng/mL
  Tmax: 0.31 ± 0.16 h
  AUC(0-t): 151 ± 41.4 ng·h/mL
  AUC(0-inf): 186 ± 70.5 ng·h/mL
  MRT last: 5.1 ± 0.77 h
  MRT inf: 11.7 ± 6.87 h
  half-life: 13 ± 6.29 h
[7]
  Cmax: 33.8 ± 14 ng/mL
  Tmax: 0.26 ± 0.13 h
  AUC(0-t): 84.8 ± 39.3 ng·h/mL
  AUC(0-inf): 98.7 ± 41.9 ng·h/mL
  MRT last: 4.09 ± 1.76 h
  MRT inf: 7.52 ± 3.62 h
  half-life: 7.59 ± 3.65 h
